The values below come from ChEMBL document CHEMBL1138623, “Synthesis and evaluation of aryl-substituted diarylpropionitriles, selective ligands for estrogen receptor beta, as positron-emission tomographic imaging agents” (Bioorg Med Chem, 2009).

The species named for the test is Homo sapiens. As to the kind of experiment: Selectivity ratio of relative binding affinity for full-length human estrogen receptor beta to ratio of relative binding affinity for full length human estrogen receptor alpha.

For the molecule `N#CC(Cc1ccc(O)c(CCF)c1)c1ccc(O)cc1` (stereo unspecified), the RBA was 58%.
The value for `N#CC(Cc1ccc(O)c(F)c1)c1ccc(O)cc1` (stereo unspecified) was 272%; that for `N#CC(Cc1ccc(O)c(CCCF)c1)c1ccc(O)cc1` (stereo unspecified) was 45%; that for `N#CC(Cc1ccc(O)c(O)c1)c1ccc(O)cc1` (stereo unspecified) was 106%.
Regarding `N#CC(Cc1ccc(O)c(Cl)c1)c1ccc(O)cc1` (stereo unspecified), the RBA came to 112%.
As for `CC(c1ccc(O)cc1)C(C#N)c1ccc(O)cc1` (stereo unspecified), the figure is 11%; as for `N#CC(c1ccc(O)cc1)C(CF)c1ccc(O)cc1` (stereo unspecified), 21%; as for `Cc1cc(CC(C#N)c2ccc(O)cc2)ccc1O` (stereo unspecified), 139%.
For `N#CC(Cc1ccc(O)c(I)c1)c1ccc(O)cc1` (stereo unspecified), the RBA was determined as 140%.
The value for `N#CC(Cc1ccc(O)c(CO)c1)c1ccc(O)cc1` (stereo unspecified) was 19%; that for `N#CC(Cc1ccc(O)c(Br)c1)c1ccc(O)cc1` (stereo unspecified) was 108%.
